Where “and” joins values, the source holds several entries; their conditions need not be identical. Equal entries are not always repeated. Where two headings read alike, the source gives them in different places.
Assays:
[1] = Matrix stability study in mouse plasma; assay type: in vitro ADME; details: 5 µg mL^−1, 37 °C, approximately 5 h, triplicate, read-out: concentration remaining (%)
Protocol: For the matrix stability study, JNJ was spiked into mouse plasma and brain homogenate at a final concentration of 5 µg mL^−1 and incubated at 37 °C for 5 h on a shaking water bath in triplicate. At the specified sampling times, 50 µL aliquots were taken in the collection plate, followed by quenching with 300 µL acetonitrile containing 10 µL IS. After final collection, samples were vortexed at 1000 rpm for 2 min and centrifuged at 2200× g for 10 min, and the collected supernatant was analyzed using LC-MS/MS. Stability was estimated by determining the % remaining after 5 h of incubation using Equation (1).(1) % remaining=Concentration5h/Concentration0h×100

[2] = In vivo PK study (plasma, IV and PO); set-up: species or system balb/c mice; details: for half-life: read-out: t1/2 (terminal half-life) (converted)
Protocol: We performed in vivo PK analysis for JNJ by 2.5 mg kg^−1 IV and 10 mg kg^−1 PO routes of administration in healthy male balb/c mice. We could quantify a dynamic range of concentrations in in vivo PK samples with our established LC-MS/MS method. Non-compartmental analysis (NCA) was performed using Phoenix software version 8.3 to estimate PK parameters from the observed plasma concentration–time profile data. […] The NCA PK parameter data are represented in Table 6. For the oral PK study, male balb/C mice were grouped into two groups, with n = 4 for each group. Throughout the experiment, mice had free access to adequate food and water. The oral solution comprised 20% (v/v) polyethylene glycol 400, 10% (v/v) propylene glycol, 10% (v/v) ethanol, 2% (v/v) DMSO, 5% cremophore, and water as the rest of the volume. For the IV dose administration, 12 male balb/C mice were used in the study, divided into two groups. The IV solution used the same composition as the oral study. Doses of 10 and 2.5 mg kg^−1 were used for oral and IV routes, respectively. Blood samplings were done at 5 min, 15 min, 30 min, 1 h, 2 h, 4 h, 8 h, and 24 h. After collection, blood samples were centrifuged immediately at 956× g for 10 min, and plasma was separated in an Eppendorf tube and stored at −80 °C until processed. In the oral PK study, tissues—liver, kidney, spleen, lung, and brain—were collected at 2, 8, and 24 h to assess the biodistribution pattern of JNJ in the oral route.

[3] = Blood-to-plasma ratio (Rb/p) study; assay type: in vitro ADME; details: balb/c mouse whole blood
Protocol: Freshly collected whole blood (400 µL) of balb/c mice was taken into an Eppendorf tube, and JNJ was spiked to obtain a final concentration at 5 µg mL^−1 following proper mixing. Blood and plasma samples were collected at 0, 30, and 60 min and processed using the previously described extraction procedure. Rb/p was then estimated by dividing the JNJ concentration in blood by the concentration obtained in plasma samples separated from blood using Equation (5), where CBlood is the drug concentration in blood and CPlasma is the drug concentration in plasma.(7) Rb/p=CBlood/CPlasma

[4] = input for fu,inc equation; source not given; cited from earlier work
[5] = Rapid equilibrium dialysis (RED) brain protein binding; assay type: in vitro ADME, mouse; details: for fraction unbound at 5 h: mouse, brain homogenate
Protocol: A rapid equilibrium dialysis (RED) protein binding assay was performed to determine the protein binding of JNJ in plasma and brain matrix. The RED plate was obtained from Thermo Fisher Scientific (Frederick, MD, USA) for the experiment. An aliquot (200 µL) of JNJ spiked plasma/brain homogenate was poured into the donor chamber, and 400 µL dialysis buffer-PBS containing 100 mM sodium phosphate and 150 mM sodium chloride was added into the receiver compartment of each RED insert in triplicate. The plate was kept in incubation for 5 h on the orbital shaker at 37 °C. Following incubation, 50 µL plasma and buffer aliquots were collected separately, and an equal volume of opposite matrix was added. Collected samples were processed as previously described in Section 4.6 and analyzed using LC-MS/MS. Degree of protein binding (%) was calculated by the following equation:(6) Protein bound (%)=Concentrationdonor cell−Concentrationreceiver cell/Concentrationdonor cell×100

[6] = Stability of JNJ in mouse plasma at different storage conditions; assay type: in vitro ADME
Protocol: The stability of JNJ in mouse plasma was evaluated at three replicates of LQC and HQCs in different storage conditions. Studies were conducted with the study of bench-top stability for 4 h at room temperature, freeze–thaw stability (three freeze–thaw cycles), autosampler stability (4 °C for 48 h) and long-term stability (at −80 °C for 1 month). Samples were considered stable if the % drug remaining after storage conditions was within ±15% compared to the freshly prepared QC samples.

[7] = male, mouse, IV 2.5 mg kg^−1, balb/c mice, plasma, n = 6
[8] = male, mouse, PO 10 mg kg^−1, balb/c mice, plasma, n = 4

Nc1nc2cc(CC[C@H]3C[C@@H](n4ccc5c(N)ncnc54)[C@H](O)[C@@H]3O)ccc2cc1Br [JNJ, JNJ-64619178]
remaining at 5 h, 5 µg mL^−1 [1]: ~100%
underestimation of observed plasma clearance by predicted hepatic clearance ([2]; 1.6 vs 3.8 mL min^−1 kg^−1, mice): approximately 2.3 fold
in vivo clearance as % of mice hepatic blood flow ([2]; IV, hepatic blood flow 3.6 L h^−1 kg^−1): ~6%
volume of distribution relative to total body water ([2]; IV, total body water 68.6% of body weight): ~ 1.6 times
CL (plasma clearance) ([2]; PO 10 mg kg^−1, balb/c mice, oral CL normalized by bioavailability (%)): 0.23 ± 0.04 L/h/kg
Vz (volume of distribution) ([2]; PO 10 mg kg^−1, balb/c mice, oral Vz normalized by bioavailability (%)): 0.88 ± 0.32 L/kg
Tmax ([2]; PO 10 mg kg^−1, mice, plasma): ~ 30 min
Cmax relative to IC50 in the HD-MB cell line ([2]; PO 10 mg kg^−1, times higher than IC50 (821 ng mL^−1)): ~ 3 times
clearance ([2]; male, balb/c, mouse, plasma, 2.5 mg kg^−1, IV, equivalent to 0.23 L h^−1 kg^−1, read-out: observed plasma clearance): 3.8 mL/min/kg
Tmax ([2]; male, balb/c, mouse, plasma, iv, 2.5 mg/kg, IV 2.5 mg kg^−1, balb/c mice, plasma, n = 6, read-out: Tmax (converted)): 6.6 ± 4.8 min
Tmax ([2]; male, balb/c, mouse, plasma, po, 10 mg/kg, PO 10 mg kg^−1, balb/c mice, plasma, n = 4, read-out: Tmax (converted)): 25.2 ± 8.4 min
Tmax ([2]; male, balb/c, mouse, plasma, po, 10 mg/kg, PO 10 mg kg^−1, mice, plasma, read-out: Tmax (converted)): 30 min
clearance ([2]; male, mouse, plasma, IV 2.5 mg kg^−1, balb/c mice, n = 6, read-out: CL (plasma clearance) (converted)): 3.83 mL/min/kg
Vd ([2]; male, mouse, plasma, IV 2.5 mg kg^−1, balb/c mice, n = 6, read-out: Vz (volume of distribution)): 1.2 ± 0.7 L/kg
half-life ([2]; male, mouse, plasma, IV 2.5 mg kg^−1, balb/c mice, n = 6): 198 ± 66 min
half-life ([2]; male, mouse, plasma, PO 10 mg kg^−1, balb/c mice, n = 4): 156 ± 42 min
bioavailability ([2]; male, mouse, plasma, PO 10 mg kg^−1 vs IV 2.5 mg kg^−1, balb/c mice): ~15% and 15%
AUC [2, 7]: 11600 ng·h/mL
Cmax [2, 7]: 4940 ± 1220 ng/mL
AUC [2, 8]: 6800 ± 1270 ng·h/mL
Cmax [2, 8]: 2780 ± 1030 ng/mL
blood plasma ratio at 5 µg mL^−1 [3]: ~0.7
logP [4]: 2.3
Brain Protein Binding (%) ([5]; mouse brain homogenate, RED, 5 h, 37 °C, n = 3): 94 ± 1%
fraction unbound at 5 h ([5]; mouse brain homogenate, RED, 5 h, 37 °C, n = 3, read-out: Brain Protein Binding (%)): < 0.06
fraction unbound at 5 h ([5]; mouse brain, read-out: fraction unbound in brain (fu,brain)): 0.057
% Stability Recoveries (Mean ± SD), Autosampler (4 °C, 48 h) ([6]; HQC (375 ng mL^−1)): 110 ± 6%
% Stability Recoveries (Mean ± SD), Bench-Top (RT, 4 h) ([6]; HQC (375 ng mL^−1)): 101 ± 15%
% Stability Recoveries (Mean ± SD), Freeze–Thaw (−80 ± 5 °C After 3 Cycle) ([6]; HQC (375 ng mL^−1)): 94 ± 8%
% Stability Recoveries (Mean ± SD), Long-Term Stability (−80 ± 5 °C, 30 Days) ([6]; HQC (375 ng mL^−1)): 95 ± 8%
% Stability Recoveries (Mean ± SD), Autosampler (4 °C, 48 h) ([6]; LQC (0.5 ng mL^−1)): 110 ± 7%
% Stability Recoveries (Mean ± SD), Bench-Top (RT, 4 h) ([6]; LQC (0.5 ng mL^−1)): 91 ± 9%
% Stability Recoveries (Mean ± SD), Freeze–Thaw (−80 ± 5 °C After 3 Cycle) ([6]; LQC (0.5 ng mL^−1)): 93 ± 4%
% Stability Recoveries (Mean ± SD), Long-Term Stability (−80 ± 5 °C, 30 Days) ([6]; LQC (0.5 ng mL^−1)): 97 ± 9%

— paper PMC13164762, “Development and Validation of an LC-MS/MS Method for the Quantitation of JNJ-64619178 (JNJ) in Mouse Plasma: Characterization of In Vitro and In Vivo Pharmacokinetic Properties” (Molecules, 2026)
